Here are results for two compounds from patent publication US11098034B2, “Pyrazolyl substituted carbonic acid derivatives as modulators of the prostacyclin (PGI2) receptor useful for the treatment of disorders related thereto” (Arena Pharmaceuticals, Inc., priority 2008, dated 2021).

For the test, the system named is MCT-induced pulmonary arterial hypertension in rat. The test is described as follows: Rat monocrotaline model of pulmonary arterial hypertension. It counts as in vivo. The conditions noted are these: male Wistar rats, MCT 60 mg/kg s.c.; test compound 30 mg/kg oral gavage twice a day for 21 days; heart weights Day 22. The procedure: Animals: Male Wistar rats (100-150 g at start of study) (Charles River Laboratories, Wilmington, Mass.) were housed two per cage and maintained in a humidity—(40-60%) and temperature—(68-72° F.) controlled facility on a 12 hr:12 hr light/dark cycle (lights on at 6:30 am) with free access to food (Harlan Teklad, Orange Calif., Rodent Diet 8604) and water. Rats were allowed one week of habituation to the animal facility before testing.
Rat monocrotaline model: The rat monocrotaline (MCT) model is a standard and well-accepted model of pulmonary arterial hypertension. MCT induces acute pulmonary endothelial damage associated with pulmonary vascular inflammation. […]
Rats were randomly given a single subcutaneous injection of either 60 mg/kg MCT (Sigma, St. Louis, Mo.) or 0.9% saline (sham) and assigned to receive oral administration of 20% hydroxypropyl beta-cyclodextrin (vehicle) or test compound (30 mg/kg; FIGS. 1 and 2). […] Heart chamber weights were measured on Day 22. […] The ratio of right ventricular (RV) weight to left ventricle plus septum (LV+S) weight (this ratio is indicated as “RV/(LV+S)” in FIGS. 1 and 2) was calculated as an index of the hypertrophic response to the induced pulmonary arterial hypertension and, as such, as an index of a test compound's therapeutic efficacy for pulmonary arterial hypertension.

Consider `COc1cccc(-c2c(-c3ccccc3)nn(C[C@H]3CC[C@@H](COCC(=O)O)CC3)c2C)c1` [Compound 14, 2-(((1s,4s)-4-((4-(3-Methoxyphenyl)-5-methyl-3-phenyl-1H-pyrazol-1-yl)methyl)cyclohexyl)methoxy)acetic Acid], for which the “hypertrophic response to the induced pulmonary arterial hypertension, RV/(LV+S)” value was “inhibited the hypertrophic response”.

Consider `COc1cccc(-c2c(-c3ccccc3)nn(C[C@H]3CC[C@@H](COCC(=O)O)CC3)c2SC)c1` [Compound 31, 2-(((1s,4s)-4-((4-(3-Methoxyphenyl)-5-(methylthio)-3-phenyl-1H-pyrazol-1-yl)methyl)cyclohexyl)methoxy)acetic Acid], for which the “hypertrophic response to the induced pulmonary arterial hypertension, RV/(LV+S)” value is given as “inhibited the hypertrophic response”.
